Assay results from ChEMBL document CHEMBL4304789, “Design, Synthesis, and Biological Evaluation of 2,4-Imidazolinedione Derivatives as HDAC6 Isoform-Selective Inhibitors” (ACS Med Chem Lett, 2019).

Legend:
HL-60 = assay: Antiproliferative activity against human HL60 cells incubated for 48 hrs by MTT assay; format: functional, cell-based; settings: HL-60, 48 h
Histone deacetylase 11 = biological target: T1, Histone deacetylase 11 (Homo sapiens, UniProt Q96DB2); assay: Inhibition of HDAC11 (unknown origin) using Ac-LeuGlyLys(Ac)-AMC as substrate preincubated for 5 mins followed by substrate addition and measured after 60 mins by fluorescence based assay
T1 sequence (Q96DB2 whole entry): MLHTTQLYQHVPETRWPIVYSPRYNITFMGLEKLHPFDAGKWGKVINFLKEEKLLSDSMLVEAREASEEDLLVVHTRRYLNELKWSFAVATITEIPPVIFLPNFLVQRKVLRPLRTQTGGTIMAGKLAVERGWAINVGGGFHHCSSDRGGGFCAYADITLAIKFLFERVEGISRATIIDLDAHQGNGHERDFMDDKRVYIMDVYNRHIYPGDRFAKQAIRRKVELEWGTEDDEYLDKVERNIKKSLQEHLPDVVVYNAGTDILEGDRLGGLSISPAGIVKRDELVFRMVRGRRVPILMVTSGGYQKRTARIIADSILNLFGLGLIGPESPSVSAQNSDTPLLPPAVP

Histone deacetylase 1 = Histone deacetylase 1 (Homo sapiens, UniProt Q13547); assay: Inhibition of HDAC1 (unknown origin) using Ac-LeuGlyLys(Ac)-AMC as substrate preincubated for 5 mins followed by substrate addition and measured after 60 mins by fluorescence based assay
Histone deacetylase 9 = Histone deacetylase 9 (Homo sapiens, UniProt Q9UKV0); assay: Inhibition of HDAC9 (unknown origin) using Ac-LeuGlyLys(tfa)-AMC as substrate preincubated for 5 mins followed by substrate addition and measured after 60 mins by fluorescence based assay
Histone deacetylase 3 = Histone deacetylase 3 (Homo sapiens, UniProt O15379); assay: Inhibition of HDAC3 (unknown origin) using Ac-LeuGlyLys(Ac)-AMC as substrate preincubated for 5 mins followed by substrate addition and measured after 60 mins by fluorescence based assay
A549 = assay: Antiproliferative activity against human A549 cells incubated for 48 hrs by MTT assay; format: functional, cell-based; settings: A549, 48 h
RPMI-8226 = assay: Antiproliferative activity against human RPMI8226 cells incubated for 48 hrs by MTT assay; format: functional, cell-based; settings: RPMI-8226, 48 h
Histone deacetylase 2 = Histone deacetylase 2 (Homo sapiens, UniProt Q92769); assay: Inhibition of HDAC2 (unknown origin) using Ac-LeuGlyLys(Ac)-AMC as substrate preincubated for 5 mins followed by substrate addition and measured after 60 mins by fluorescence based assay
[1] = biological target: T2, Polyamine deacetylase HDAC10 (Homo sapiens, UniProt Q969S8); assay: Inhibition of HDAC10 (unknown origin) using Ac-ArgThr- Lys(Ac)Lys(Ac)-AMC as substrate preincubated for 5 mins followed by substrate addition and measured after 60 mins by fluorescence based assay
T2 sequence (Q969S8 whole entry): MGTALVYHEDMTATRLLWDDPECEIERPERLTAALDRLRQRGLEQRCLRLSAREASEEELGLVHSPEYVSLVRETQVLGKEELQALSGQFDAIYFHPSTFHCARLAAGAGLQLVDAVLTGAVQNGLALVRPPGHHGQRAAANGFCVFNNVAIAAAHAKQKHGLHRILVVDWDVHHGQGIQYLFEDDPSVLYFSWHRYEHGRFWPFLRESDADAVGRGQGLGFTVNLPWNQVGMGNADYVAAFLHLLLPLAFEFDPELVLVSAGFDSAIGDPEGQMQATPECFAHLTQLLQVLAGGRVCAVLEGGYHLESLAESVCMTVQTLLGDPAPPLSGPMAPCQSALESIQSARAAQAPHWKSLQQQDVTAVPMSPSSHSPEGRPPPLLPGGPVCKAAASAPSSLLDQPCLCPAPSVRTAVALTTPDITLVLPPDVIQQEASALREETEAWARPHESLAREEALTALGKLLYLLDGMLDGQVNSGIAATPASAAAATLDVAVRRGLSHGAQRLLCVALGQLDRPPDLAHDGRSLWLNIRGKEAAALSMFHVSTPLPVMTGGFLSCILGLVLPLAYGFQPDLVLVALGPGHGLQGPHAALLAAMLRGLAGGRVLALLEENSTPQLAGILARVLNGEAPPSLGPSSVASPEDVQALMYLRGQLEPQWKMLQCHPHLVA

Histone deacetylase 5 = Histone deacetylase 5 (Homo sapiens, UniProt Q9UQL6); assay: Inhibition of HDAC5 (unknown origin) using Ac-LeuGlyLys(tfa)-AMC as substrate preincubated for 5 mins followed by substrate addition and measured after 60 mins by fluorescence based assay
Histone deacetylase 4 = Histone deacetylase 4 (Homo sapiens, UniProt P56524); assay: Inhibition of HDAC4 (unknown origin) using Ac-LeuGlyLys(tfa)-AMC as substrate preincubated for 5 mins followed by substrate addition and measured after 60 mins by fluorescence based assay
K562 = assay: Antiproliferative activity against human K562 cells incubated for 48 hrs by MTT assay; format: functional, cell-based; settings: K562, 48 h
Histone deacetylase 7 = biological target: T3, Histone deacetylase 7 (Homo sapiens, UniProt Q8WUI4); assay: Inhibition of HDAC7 (unknown origin) using Ac-LeuGlyLys(tfa)-AMC as substrate preincubated for 5 mins followed by substrate addition and measured after 60 mins by fluorescence based assay
T3 sequence (Q8WUI4 whole entry): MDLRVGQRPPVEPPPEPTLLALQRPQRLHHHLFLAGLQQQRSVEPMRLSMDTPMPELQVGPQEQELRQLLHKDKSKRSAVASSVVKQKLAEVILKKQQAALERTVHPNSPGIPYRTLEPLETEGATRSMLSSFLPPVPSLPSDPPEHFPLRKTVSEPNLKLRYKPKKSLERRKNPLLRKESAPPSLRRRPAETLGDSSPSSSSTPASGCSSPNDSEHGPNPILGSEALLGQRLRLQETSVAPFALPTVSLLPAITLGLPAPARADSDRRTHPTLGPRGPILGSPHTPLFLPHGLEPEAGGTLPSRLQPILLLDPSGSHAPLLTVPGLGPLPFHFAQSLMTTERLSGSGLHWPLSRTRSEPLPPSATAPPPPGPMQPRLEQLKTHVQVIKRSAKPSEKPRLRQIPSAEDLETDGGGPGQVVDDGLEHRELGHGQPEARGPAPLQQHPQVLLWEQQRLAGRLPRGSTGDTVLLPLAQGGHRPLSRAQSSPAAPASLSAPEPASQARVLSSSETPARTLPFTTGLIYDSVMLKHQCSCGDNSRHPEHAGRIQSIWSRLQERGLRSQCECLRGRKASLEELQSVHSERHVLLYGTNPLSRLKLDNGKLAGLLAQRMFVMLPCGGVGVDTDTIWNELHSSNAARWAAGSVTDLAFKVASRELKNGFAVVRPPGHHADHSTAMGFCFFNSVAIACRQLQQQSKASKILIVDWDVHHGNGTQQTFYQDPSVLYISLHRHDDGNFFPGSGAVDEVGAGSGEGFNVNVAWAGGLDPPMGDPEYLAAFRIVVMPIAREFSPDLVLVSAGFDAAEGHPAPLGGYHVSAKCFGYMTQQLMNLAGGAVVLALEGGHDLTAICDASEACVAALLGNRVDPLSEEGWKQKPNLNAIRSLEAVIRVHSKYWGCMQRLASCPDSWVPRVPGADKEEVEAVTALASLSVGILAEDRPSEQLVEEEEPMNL

Sequence of Histone deacetylase 4 (P56524 whole entry): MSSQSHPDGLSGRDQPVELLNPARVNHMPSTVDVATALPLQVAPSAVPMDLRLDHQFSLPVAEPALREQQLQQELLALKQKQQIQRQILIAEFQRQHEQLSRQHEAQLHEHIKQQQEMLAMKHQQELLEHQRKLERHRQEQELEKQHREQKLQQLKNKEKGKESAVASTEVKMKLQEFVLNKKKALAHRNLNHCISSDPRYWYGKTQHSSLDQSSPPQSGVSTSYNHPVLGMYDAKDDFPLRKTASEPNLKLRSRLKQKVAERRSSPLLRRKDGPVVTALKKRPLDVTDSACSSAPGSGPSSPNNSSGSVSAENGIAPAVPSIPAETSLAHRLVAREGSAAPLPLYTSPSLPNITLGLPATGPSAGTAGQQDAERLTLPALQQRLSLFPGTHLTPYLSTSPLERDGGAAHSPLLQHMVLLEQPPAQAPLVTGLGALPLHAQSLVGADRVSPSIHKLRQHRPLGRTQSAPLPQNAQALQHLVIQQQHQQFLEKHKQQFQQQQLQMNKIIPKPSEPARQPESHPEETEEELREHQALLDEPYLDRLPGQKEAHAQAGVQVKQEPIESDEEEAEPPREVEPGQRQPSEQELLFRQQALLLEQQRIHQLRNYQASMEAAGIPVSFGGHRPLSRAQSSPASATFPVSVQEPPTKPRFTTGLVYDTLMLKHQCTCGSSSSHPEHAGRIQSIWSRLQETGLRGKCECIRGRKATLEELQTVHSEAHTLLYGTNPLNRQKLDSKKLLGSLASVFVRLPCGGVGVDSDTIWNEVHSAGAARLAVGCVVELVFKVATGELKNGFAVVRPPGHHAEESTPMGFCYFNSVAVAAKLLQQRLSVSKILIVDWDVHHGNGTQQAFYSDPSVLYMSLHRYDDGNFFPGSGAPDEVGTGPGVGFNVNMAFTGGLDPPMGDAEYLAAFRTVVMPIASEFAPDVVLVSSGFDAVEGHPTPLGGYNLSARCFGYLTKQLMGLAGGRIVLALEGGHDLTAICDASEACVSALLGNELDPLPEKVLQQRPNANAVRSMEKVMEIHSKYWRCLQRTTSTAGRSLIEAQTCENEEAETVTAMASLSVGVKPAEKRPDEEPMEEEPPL
Sequence of Histone deacetylase 1 (Q13547 whole entry): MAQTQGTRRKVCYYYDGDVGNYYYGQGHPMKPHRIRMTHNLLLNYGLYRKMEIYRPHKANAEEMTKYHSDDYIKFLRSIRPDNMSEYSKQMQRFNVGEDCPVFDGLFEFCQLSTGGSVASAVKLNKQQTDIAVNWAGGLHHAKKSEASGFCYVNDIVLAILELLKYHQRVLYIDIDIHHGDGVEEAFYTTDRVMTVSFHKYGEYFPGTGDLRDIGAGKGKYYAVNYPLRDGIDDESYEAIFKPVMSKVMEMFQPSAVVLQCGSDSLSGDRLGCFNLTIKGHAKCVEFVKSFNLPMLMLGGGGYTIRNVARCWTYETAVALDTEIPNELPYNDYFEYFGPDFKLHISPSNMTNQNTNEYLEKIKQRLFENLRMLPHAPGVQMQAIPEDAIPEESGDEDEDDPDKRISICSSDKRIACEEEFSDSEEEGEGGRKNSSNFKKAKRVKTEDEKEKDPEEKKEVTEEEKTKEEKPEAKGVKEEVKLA
Sequence of Histone deacetylase 5 (Q9UQL6 whole entry): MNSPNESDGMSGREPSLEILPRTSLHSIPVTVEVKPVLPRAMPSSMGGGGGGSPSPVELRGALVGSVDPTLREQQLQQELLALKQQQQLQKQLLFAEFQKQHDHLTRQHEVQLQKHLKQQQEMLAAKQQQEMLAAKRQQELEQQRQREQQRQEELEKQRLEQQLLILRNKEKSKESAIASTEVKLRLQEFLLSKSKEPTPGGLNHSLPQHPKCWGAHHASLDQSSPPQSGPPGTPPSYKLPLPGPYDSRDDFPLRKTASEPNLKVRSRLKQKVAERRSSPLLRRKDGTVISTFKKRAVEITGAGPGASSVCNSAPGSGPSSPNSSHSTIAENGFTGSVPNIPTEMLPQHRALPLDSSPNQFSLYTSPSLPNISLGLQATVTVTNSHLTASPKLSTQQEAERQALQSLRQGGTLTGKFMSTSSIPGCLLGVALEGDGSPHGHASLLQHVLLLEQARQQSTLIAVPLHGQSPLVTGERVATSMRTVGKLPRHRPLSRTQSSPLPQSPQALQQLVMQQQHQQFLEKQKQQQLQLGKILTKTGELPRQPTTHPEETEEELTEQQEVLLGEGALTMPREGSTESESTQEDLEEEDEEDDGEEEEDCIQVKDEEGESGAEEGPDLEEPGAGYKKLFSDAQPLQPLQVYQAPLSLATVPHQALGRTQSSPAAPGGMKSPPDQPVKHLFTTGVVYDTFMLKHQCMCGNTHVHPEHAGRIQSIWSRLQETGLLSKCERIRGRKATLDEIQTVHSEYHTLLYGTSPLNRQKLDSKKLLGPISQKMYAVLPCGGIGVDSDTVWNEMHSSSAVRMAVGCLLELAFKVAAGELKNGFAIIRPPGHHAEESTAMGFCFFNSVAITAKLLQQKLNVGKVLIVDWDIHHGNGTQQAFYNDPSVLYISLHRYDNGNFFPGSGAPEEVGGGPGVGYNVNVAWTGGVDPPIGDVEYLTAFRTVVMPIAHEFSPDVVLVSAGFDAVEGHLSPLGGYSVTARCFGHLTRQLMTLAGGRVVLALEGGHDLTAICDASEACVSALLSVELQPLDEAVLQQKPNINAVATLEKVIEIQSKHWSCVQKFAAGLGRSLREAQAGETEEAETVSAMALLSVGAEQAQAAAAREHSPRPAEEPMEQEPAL
Sequence of Histone deacetylase 9 (Q9UKV0 whole entry): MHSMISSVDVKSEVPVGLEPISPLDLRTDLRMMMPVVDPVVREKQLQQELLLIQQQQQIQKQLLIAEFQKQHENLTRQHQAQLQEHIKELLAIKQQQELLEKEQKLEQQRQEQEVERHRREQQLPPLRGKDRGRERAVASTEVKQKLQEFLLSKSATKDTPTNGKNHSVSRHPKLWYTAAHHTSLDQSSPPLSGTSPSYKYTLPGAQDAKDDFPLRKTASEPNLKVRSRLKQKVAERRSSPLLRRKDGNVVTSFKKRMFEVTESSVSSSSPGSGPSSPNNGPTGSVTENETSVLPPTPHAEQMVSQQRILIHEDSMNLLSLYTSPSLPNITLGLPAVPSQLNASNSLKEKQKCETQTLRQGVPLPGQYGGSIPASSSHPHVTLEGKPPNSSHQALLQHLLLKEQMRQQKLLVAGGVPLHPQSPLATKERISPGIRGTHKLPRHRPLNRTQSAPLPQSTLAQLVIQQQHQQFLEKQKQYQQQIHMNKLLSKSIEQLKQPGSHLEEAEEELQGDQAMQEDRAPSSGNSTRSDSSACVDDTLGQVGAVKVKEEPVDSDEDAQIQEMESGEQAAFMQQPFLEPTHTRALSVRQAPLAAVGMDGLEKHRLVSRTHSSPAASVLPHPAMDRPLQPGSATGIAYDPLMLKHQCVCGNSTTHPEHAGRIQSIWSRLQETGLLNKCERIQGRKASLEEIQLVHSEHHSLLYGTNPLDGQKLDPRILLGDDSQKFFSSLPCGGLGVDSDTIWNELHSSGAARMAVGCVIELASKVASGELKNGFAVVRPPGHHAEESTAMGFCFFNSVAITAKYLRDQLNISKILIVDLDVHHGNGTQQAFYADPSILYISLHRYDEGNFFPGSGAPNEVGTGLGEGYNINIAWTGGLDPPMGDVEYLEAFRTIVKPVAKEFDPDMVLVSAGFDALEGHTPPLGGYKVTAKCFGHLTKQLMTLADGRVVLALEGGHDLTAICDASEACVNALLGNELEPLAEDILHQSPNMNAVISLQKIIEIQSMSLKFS
Sequence of Histone deacetylase 2 (Q92769 whole entry): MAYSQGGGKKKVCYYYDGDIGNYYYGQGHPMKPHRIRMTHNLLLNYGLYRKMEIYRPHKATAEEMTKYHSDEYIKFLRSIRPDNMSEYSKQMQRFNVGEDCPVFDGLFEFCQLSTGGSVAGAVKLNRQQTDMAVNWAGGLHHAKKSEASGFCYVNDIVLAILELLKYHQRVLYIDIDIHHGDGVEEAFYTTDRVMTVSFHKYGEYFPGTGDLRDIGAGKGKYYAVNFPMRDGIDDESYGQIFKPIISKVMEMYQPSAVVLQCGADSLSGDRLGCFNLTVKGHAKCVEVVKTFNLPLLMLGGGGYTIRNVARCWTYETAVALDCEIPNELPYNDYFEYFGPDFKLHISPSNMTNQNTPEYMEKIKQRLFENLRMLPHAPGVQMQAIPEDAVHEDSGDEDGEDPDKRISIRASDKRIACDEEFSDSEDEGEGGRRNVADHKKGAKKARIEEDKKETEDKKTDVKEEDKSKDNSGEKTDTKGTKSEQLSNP
Sequence of Histone deacetylase 3 (O15379 whole entry): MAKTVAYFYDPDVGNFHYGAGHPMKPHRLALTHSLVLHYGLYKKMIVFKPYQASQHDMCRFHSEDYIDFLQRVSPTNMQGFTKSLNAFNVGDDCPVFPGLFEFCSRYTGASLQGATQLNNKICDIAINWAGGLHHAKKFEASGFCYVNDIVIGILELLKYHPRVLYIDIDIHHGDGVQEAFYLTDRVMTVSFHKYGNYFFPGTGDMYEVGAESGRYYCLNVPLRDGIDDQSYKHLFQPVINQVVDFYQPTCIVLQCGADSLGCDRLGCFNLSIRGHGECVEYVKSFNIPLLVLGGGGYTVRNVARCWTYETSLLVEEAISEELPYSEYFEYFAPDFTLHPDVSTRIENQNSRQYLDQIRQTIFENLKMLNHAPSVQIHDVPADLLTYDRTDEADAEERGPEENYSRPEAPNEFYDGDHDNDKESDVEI

Question: For O=C(CCC1C(=O)N(c2ccc(Cl)cc2)C(=O)N1Cc1ccc(Br)cc1)Nc1ccc(C(=O)NO)cc1 (centres undefined), which IC50 (HL-60) is on record?
Answer: 340 nM

Question: And the IC50 (Histone deacetylase 11)?
Answer: > 100 µM

Question: And the IC50 (Histone deacetylase 1)?
Answer: 194 nM

Question: What about the IC50 (Histone deacetylase 9) of the same compound?
Answer: 9.1 µM

Question: What about the IC50 (Histone deacetylase 3) of the same compound?
Answer: 126 nM

Question: And the IC50 (A549)?
Answer: 5.86 µM

Question: What about the IC50 (RPMI-8226) of the same compound?
Answer: 360 nM

Question: And the IC50 (Histone deacetylase 2)?
Answer: 249 nM

Question: And the IC50 [1]?
Answer: 268 nM

Question: What about the IC50 (Histone deacetylase 5) of the same compound?
Answer: 4.6 µM

Question: What about the IC50 (Histone deacetylase 4) of the same compound?
Answer: > 100 µM

Question: And the IC50 (K562)?
Answer: 690 nM

Question: What about the IC50 (Histone deacetylase 7) of the same compound?
Answer: 6 µM

Question: What does the source list for O=C(CCC1C(=O)N(c2ccc(Cl)cc2)C(=O)N1Cc1ccccc1)Nc1ccc(C(=O)NO)cc1 (centres undefined)?
Answer: IC50 (HL-60): 610 nM; IC50 (Histone deacetylase 11): > 100 µM; IC50 (Histone deacetylase 1): 111 nM; IC50 (Histone deacetylase 9): 15.2 µM; IC50 (Histone deacetylase 3): 96 nM; IC50 (A549): 9.45 µM; IC50 (RPMI-8226): 640 nM; IC50 (Histone deacetylase 2): 203 nM; IC50 [1]: 114 nM; IC50 (Histone deacetylase 5): 4.6 µM; IC50 (Histone deacetylase 4): 27 µM; IC50 (K562): 830 nM; IC50 (Histone deacetylase 7): 8.8 µM

Question: How did the IC50 (HL-60) turn out when Cc1ccc(CN2C(=O)N(c3ccc(Cl)cc3)C(=O)C2CCC(=O)Nc2ccc(C(=O)NO)cc2)cc1 (centres undefined) was run?
Answer: 250 nM

Question: And the IC50 (Histone deacetylase 11)?
Answer: > 100 µM

Question: And the IC50 (Histone deacetylase 1)?
Answer: 959 nM

Question: And the IC50 (Histone deacetylase 9)?
Answer: > 100 µM

Question: And the IC50 (Histone deacetylase 3)?
Answer: 235 nM

Question: And the IC50 (A549)?
Answer: 0.79 µM

Question: And the IC50 (RPMI-8226)?
Answer: 230 nM

Question: What about the IC50 (Histone deacetylase 2) of the same compound?
Answer: 277 nM

Question: And the IC50 [1]?
Answer: 164 nM

Question: What about the IC50 (Histone deacetylase 5) of the same compound?
Answer: 14.9 µM

Question: And the IC50 (Histone deacetylase 4)?
Answer: > 100 µM

Question: And the IC50 (K562)?
Answer: 490 nM

Question: What about the IC50 (Histone deacetylase 7) of the same compound?
Answer: > 100 µM
